Measured values: patent US9637507B2, “Process for the preparation of liquid tin(II) alkoxides” (CHIANG MAI UNIVERSITY, priority 2012, dated 2017)

What was measured:
[1] = literature solids; cited from earlier work
[2] = Storage of liquid tin(II) alkoxides under nitrogen or argon; details: stored under a nitrogen or argon atmosphere
[3] = Solubility test of tin(II) alkoxides in organic solvents; assay type: physicochemical; details: liquid tin(II) alkoxides; temperature range of 25-38° C.

| Molecule | Stability (moisture, oxygen, colour change) [1] | Storage stability (reactivity) [2] | Solubility in common organic solvents [3] |
| --- | --- | --- | --- |
| CC[O][Sn][O]CC [Tin(II) ethoxide, reference compound] | turned yellow rapidly, even when the product was dried and kept under vacuum | – | – |
| CCCC[O-].CCCC[O-].[Sn+2] [Tin(II) n-butoxide, tin(II) n-butoxide] | extremely moisture and oxygen sensitive | without any significant effect on their reactivity | – |
| tin(II) n-hexoxide | – | – | soluble in common organic solvents |
| tin(II) n-octoxide | – | – | soluble in common organic solvents |
